From PMC3253046 (Chinese Medicine, 2011)
Read-outs that look alike come from different tables or passages of the source.

Legend:
[1] = Stability of the selected isoflavones in transport buffer (PBS+); type: physicochemical; conditions: three hours of incubation
Procedure: The transport buffer (PBS^+) used in the Caco-2 monolayer model was prepared as previously described. […]. For stability tests at 37°C, samples were taken at 0, 15, 40, 75, 120 and 180 minutes. At each time interval, 300 μl of isoflavone solution was taken and then acidified with 50 μl of 0.425% phosphoric acid. All experiments were conducted in triplicates. The amount of selected isoflavones remained in PBS^+ was determined with high-performance liquid chromatography (HPLC).

Caco-2 monolayer = test: Bidirectional transport in the Caco-2 monolayer model; type: in vitro ADME, human; conditions: for time at which detectable in receiver chambers: after being loaded, both directions
Procedure: (§1) The Caco-2 cells were cultured and seeded in the Transwell® inserts (24 mm, 0.4 μm pore size, 4.71 cm^2, polycarbonate filter) according to our previous study. Cells used for the current study were from passage 35-40. The transport experiments were carried out at 23-25 days after seeding. Upon removal of culture medium, the Transwells® were pre-equilibrated with PBS^+ at 37°C for 15 minutes. […] All Caco-2 transport studies were performed at least in triplicates. Procedure was similar to the A→B transport studies except for the donor side and the receiver side was reversed. […] Samples were taken from the receiver (apical) side at the same time points and at the end of the experiment from the donor (basolateral) side as mentioned for the A→B studies. The studies were also performed at least in triplicates. Samples obtained in the Caco-2 transport studies were acidified with 0.425% phosphoric acid at a sample to acid ratio of 150:25 (v/v). […] Waters 2695 separation modules and Waters 996 photodiode array detector were used in the HPLC analyses of the Caco-2 samples. A reversed-phase column (100 × 4.6 mm 5μ Apex ODS Symm, Jones Chromatography, USA) equipped with a guard column (7.5 × 4.6 mm 5μ Spherisorb® ODS-2 C18, Waters, USA]) was used for the analyses of all three isoflavones. In order to shorten sample-running time, three separated HPLC methods were used for each isoflavone. The apparent permeability coefficient, Papp (cm/s), was calculated as follows. Papp=dC∕dT×V/(A×Co) where dC/dT is the initial slope of the plot of cumulative isoflavone concentrations versus time; V is the volume of receiver chamber (ml); A is the apparent surface area of the monolayer; Co is the initial concentration in donor site (μmol/ml). In addition to Papp, the percentage of recovery was calculated for each transport study to determine the extent of absence of isoflavone, which may be due to cell uptake or metabolism of the selected isoflavones after passing through the Caco-2 cells. It was calculated as follows. Recovery%=Final amount (in μmole) of isoflavone in donor and receptor side∕Initial amount (in μmole) of isoflavone in donor side

[2] = as above; type: in vitro ADME, human; conditions: human
Procedure: as §1

[3] = Partition coefficients (octanol/aqueous); type: physicochemical; conditions: read-out: partition coefficient D (LogD, octanol/aqueous)
Procedure: The aqueous solution (10 ml) containing individual isoflavones was mixed with octanol (3 ml). The mixtures were equilibrated in tube rotator for 24 hours followed by sampling from the aqueous layers and determining concentrations of the isoflavones by HPLC. The test was performed in triplicates for each isoflavone. The partition coefficients (D) at both pH7.4 and pH 6.8 were obtained through the following equation:
LogD=log(isoflavoneoctanolphase∕isoflavoneaqueousphase)

MRP = test: Basolateral-to-apical transport in Caco-2 monolayer in the presence of MK571 (MRP inhibitor); type: in vitro ADME, human; conditions: for lowering of B→A cumulative concentration versus without MK571: MK571 50 μM
Procedure: Procedure was similar to the A→B transport studies except for the donor side and the receiver side was reversed. Loading solution (2.6 ml) was added into the basolateral side and 1.5 ml of the blank PBS^+ was added to the apical side. Samples were taken from the receiver (apical) side at the same time points and at the end of the experiment from the donor (basolateral) side as mentioned for the A→B studies. The studies were also performed at least in triplicates.
The study was performed only for isoflavones that had shown a favorable B→A transport in the bi-directional transport studies. […] To investigate the influence of MRP on the efflux transport of the selected isoflavones, we preloaded 1.5 ml of MK571 (50 μM) at apical side and 2.6 ml of MK571 (50 μM) at the basolateral side respectively. The B→A transport experiments of the selected isoflavones in the presence of MK571 (50 μM) in the both apical and basolateral chambers were then performed following the method described above. The studies were performed in triplicates.

[4] = Hydrolysis on incubation with rat intestinal microvilli preparations; type: in vitro ADME; conditions: 50 μM, 37°C, two hours, protein 0.43 mg/ml
Procedure: Male Sprague-Dawley rats, supplied by and bred at the Laboratory Animal Service Center at The Chinese University of Hong Kong, were housed in an air-conditioned room under a 12/12-hour light/dark cycle. The experiment was conducted after being approved by the Animal Ethics Committee of The Chinese University of Hong Kong.
Samples from the in vitro incubation studies were centrifuged at 16,000 × g (Eppendorf, Germany) for five minutes; 50 μl of the supernatant of the samples were obtained and injected into the HPLC for analysis. In order to monitor daidzin, puerarin and daidzein in a single run for the samples from the hydrolysis study, we modified the above HPLC method for simultaneous detection of the three compounds. The analytes were separated with an HPLC column (BDS reversed phase column, 25 cm × 4.6 mm id; 5 μm particle size, Thermo Hypersil, UK) and eluted by the linear gradient elution at a flow rate of 1 ml/min. The gradient started with 95% of water with 0.01% aqueous acetic acid (A) and 5% of ACN containing 0.01% acetic acid (B), changed linearly to 83% A and 17% B in 30 minutes; 70% A and 30% B in 30-40 minutes; 50% A and 50% B in 40-45 minutes; and then back to the initial composition in 15 minutes followed by ten minutes after equilibrium.

[5] = both directional transport studies
[6] = Caco-2, pH 6.8, Caco-2, pH6.8, mean ± SD (n = 3), read-out: Recovery Apical to basolateral
[7] = Caco-2, pH 6.8, Caco-2, pH6.8, mean ± SD (n = 3), read-out: Recovery Basolateral to apical

Row | Structure (SMILES) | isoflavone remained in PBS+ ([1]; pH6.8, 37°C) [%] | isoflavone remained in PBS+ ([1]; pH7.4, 37°C) [%] | time at which detectable in receiver chambers (Caco-2 monolayer) | percentage of recoveries (Caco-2 monolayer; [5]) | recovery ([2]; Caco-2, pH 6.8, Recovery Apical to basolateral) [%] | recovery ([2]; Caco-2, pH 6.8, Recovery Basolateral to apical) [%] | logD at 24 h ([3]; pH 6.8, 24 hours equilibration) | logD at 24 h ([3]; pH 7.4, pH7.4, 24 hours equilibration) | time from which detectable in the receiver chamber (MRP; B→A, in the presence of MK571 50 μM) [min] | lowering of B→A cumulative concentration versus without MK571 (MRP; at 180 minutes) [%] | cumulative concentration in the receiver chamber (B→A) (MRP; at 180 minutes, MK571 50 μM in both chambers) [µM] | lowering of B→A cumulative concentration versus without MK571 (MRP; at 180 minutes, listed as daidzin) | recovery at 180 min (MRP; human, Caco-2, B→A transport in the absence and presence of MK571, read-out: percentages of recovery) [%] | hydrolysis by rat intestinal microvilli preparations [4] | recovery [2, 6] [%] | recovery [2, 7] [%] | Papp B→A ([2]; pH 6.8, Caco-2, pH6.8, mean ± SD (n = 3), read-out: Papp Basolateral to apical) [×10⁻⁶ cm/s] | cumulative concentration in the receiver side (Caco-2 monolayer; at 180 minutes after apical loading) [µM] | cumulative concentration in the receiver side (Caco-2 monolayer; at 180 minutes after basal loading) [µM] | fraction permeable through the Caco-2 monolayer (Caco-2 monolayer; [5])
1 | O=c1c(-c2ccc(O)cc2)coc2cc(O)ccc12 [Daidzein, daidzein] | 95.50 ± 0.84 | 97.73 ± 3.43 | 15 min | about 83% | 83.1 ± 5.74 | 84 ± 14.1 | – | – | – | – | – | – | – | – | – | – | – | – | – | –
2 | O=c1c(-c2ccc(O)cc2)coc2cc(O[C@@H]3O[C@H](CO)[C@@H](O)[C@H](O)[C@H]3O)ccc12 [Daidzin, daidzin] | 108.66 ± 2.16 | 108.11 ± 5.21 | – | – | – | – | 0.34 ± 0.03 | 0.8 ± 0.03 | 90 | 50 | 0.41 ± 0.02 | about 50% | > 90 | completely hydrolyzed to daidzein | 92.9 ± 1.77 | 99.2 ± 2.55 | 0.53 | – | – | –
3 | O=c1c(-c2ccc(O)cc2)coc2c([C@@H]3O[C@H](CO)[C@@H](O)[C@H](O)[C@H]3O)c(O)ccc12 [Puerarin, puerarin] | 105.00 ± 2.72 | 106.74 ± 4.20 | not being detectable until two hours | – | – | – | – | – | – | – | – | – | – | majority of puerarin remained unchanged | 88.9 ± 7.03 | 92.7 ± 8.09 | – | 0.043 ± 0.006 | 0.12 ± 0.02 | around 0.3%
